The numbers were not newly measured in US6521608B1, “Vitamin D and its analogs in the treatment of tumors and other hyperproliferative disorders” (Oregon Health & Science University, priority 1998, dated 2003), which cites them from elsewhere.

“And” between values parts separate entries of the source, which are not always exact repeats. Equal entries are not always repeated.

The target in one data set is T1, VDR (chick intestine) (Gallus gallus, UniProt O42392).
T1 construct: SPC indicates the species of origin of the nVDR where c=chick intestine, r=rat intestine; from tissue; host or cells: chick intestine
T1 sequence (O42392 1-451): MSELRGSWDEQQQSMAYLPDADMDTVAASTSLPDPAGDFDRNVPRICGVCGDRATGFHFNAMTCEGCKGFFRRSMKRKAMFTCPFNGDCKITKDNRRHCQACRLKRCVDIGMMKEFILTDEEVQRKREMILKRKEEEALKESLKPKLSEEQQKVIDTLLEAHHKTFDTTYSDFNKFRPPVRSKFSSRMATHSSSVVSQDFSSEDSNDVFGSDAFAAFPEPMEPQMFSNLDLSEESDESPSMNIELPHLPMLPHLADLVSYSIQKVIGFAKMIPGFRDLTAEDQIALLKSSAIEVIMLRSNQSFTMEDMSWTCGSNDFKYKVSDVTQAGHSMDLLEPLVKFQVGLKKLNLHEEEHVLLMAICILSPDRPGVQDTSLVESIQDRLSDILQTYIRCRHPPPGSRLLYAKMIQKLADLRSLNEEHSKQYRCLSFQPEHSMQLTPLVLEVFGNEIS
The note with it: cited from earlier work.

The next data set has as its target T2, VDR (rat intestine) (Rattus norvegicus, UniProt P13053).
T2 construct: SPC indicates the species of origin of the nVDR where c=chick intestine, r=rat intestine; from tissue; host or cells: rat intestine
T2 sequence (P13053 1-423): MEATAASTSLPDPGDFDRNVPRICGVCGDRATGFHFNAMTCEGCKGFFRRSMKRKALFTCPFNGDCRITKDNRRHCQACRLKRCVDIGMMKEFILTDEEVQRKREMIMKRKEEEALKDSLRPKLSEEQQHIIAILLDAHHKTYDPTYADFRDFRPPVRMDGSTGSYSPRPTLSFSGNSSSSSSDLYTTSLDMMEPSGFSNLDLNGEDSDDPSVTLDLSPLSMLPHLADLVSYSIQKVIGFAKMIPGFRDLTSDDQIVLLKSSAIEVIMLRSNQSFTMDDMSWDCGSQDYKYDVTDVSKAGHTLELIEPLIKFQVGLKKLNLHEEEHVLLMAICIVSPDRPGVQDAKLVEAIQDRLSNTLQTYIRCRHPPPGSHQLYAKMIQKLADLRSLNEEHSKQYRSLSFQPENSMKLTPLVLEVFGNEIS
The note with it: cited from earlier work.

The conditions of data set [1]: relative to calcitriol = 1; cited from earlier work.
The target of data set [2] is T3, VDR (rat osteosarcoma ROS 17/2.8 cells) (Rattus norvegicus, UniProt P13053).
T3 construct: m=MCF-7 human breast cancer cells, z=rat osteosarcoma ROS 17/2.8 cells; endogenous in cells; host or cells: ROS 17/2.8 rat osteosarcoma cells
T3 sequence (P13053 1-423): T2 sequence (P13053 1-423)
The note with it: cited from earlier work.

Data set [3] concerns the target T4, VDR (MCF-7 human breast cancer cells) (Homo sapiens, UniProt P11473).
T4 construct: m=MCF-7 human breast cancer cells, z=rat osteosarcoma ROS 17/2.8 cells; endogenous in cells; host or cells: MCF-7 human breast cancer cells
T4 sequence (P11473 1-427): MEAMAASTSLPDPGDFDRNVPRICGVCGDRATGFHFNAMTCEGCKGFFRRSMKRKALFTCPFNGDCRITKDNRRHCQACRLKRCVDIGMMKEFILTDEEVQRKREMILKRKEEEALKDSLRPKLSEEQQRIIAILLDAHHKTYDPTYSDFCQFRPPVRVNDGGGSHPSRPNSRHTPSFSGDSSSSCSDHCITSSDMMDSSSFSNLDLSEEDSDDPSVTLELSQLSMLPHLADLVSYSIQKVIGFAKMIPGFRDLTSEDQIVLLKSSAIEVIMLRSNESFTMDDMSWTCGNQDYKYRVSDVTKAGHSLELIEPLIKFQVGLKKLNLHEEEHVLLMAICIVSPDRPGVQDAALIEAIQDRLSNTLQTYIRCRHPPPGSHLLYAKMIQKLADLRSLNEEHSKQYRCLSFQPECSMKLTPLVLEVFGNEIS
The note with it: MCF-7 cells; cited from earlier work.

Data set [4] has as its system locally advanced or cutaneous metastatic breast cancer. The settings on record: topical, cited from earlier work.
A further data set deals with T5, VDR (U-937 cells) (Homo sapiens, UniProt P11473).
T5 construct: obtained in human transformed cell lines where h=HL-60 cells, u=U-937; endogenous in cells; host or cells: U-937
T5 sequence (P11473 1-427): T4 sequence (P11473 1-427)
The settings on record: cited from earlier work.

Turning to 25-(OH)2-16-ene-23-yne-D3, the “Relative Competitive index for VDR (Calcitriol = 100)” value on VDR (chick intestine) is 0.4 (chick) and <0.4 (chick); on VDR (rat intestine) it was 0.07 (rat intestine).

Turning to `C=C1/C(=C\C=C2/CCC[C@]3(C)C([C@H](C)CC#CC(C)(C)O)=CC[C@@H]23)C[C@@H](O)C[C@@H]1O` [1,25-(OH)2-16-Ene-23-yne-D3, 1,25-(OH)2-16-ene-23-yne-D3], the “Relative Competitive index for VDR (Calcitriol = 100)” value at VDR (chick intestine) was 68 (chick) and 70 (chick) and 90 (chick) and 80 (chick); at VDR (rat intestine) it was 50 (rat intestine).

Regarding `C=C1/C(=C\C=C2/CCC[C@]3(C)C([C@H](C)CCCC(C)(C)O)=CC[C@@H]23)C[C@@H](O)C[C@@H]1O` [1,25-(OH)2-16-Ene-D3, 1,25-(OH)2-16-ene-D3], the “Relative Competitive index for VDR (Calcitriol = 100)” value at VDR (chick intestine) is 165 (chick); at VDR (rat intestine), 240 (rat intestine) and 250 (rat intestine).

As to `C=C1/C(=C\C=C2/CCC[C@]3(C)[C@@H]([C@H](C)CCCC(C)C)CC[C@@H]23)C[C@@H](O)C[C@@H]1O` [1alpha-(OH)-D3, 1α-hydroxyvitamin D3], the “Relative Competitive index for VDR (Calcitriol = 100)” value on VDR (chick intestine) is given as 0.17 (chick). As to `C=C1C(=CC=C2CC(CF)CC3(C)C2CCC3C(C)CCCC(C)(C)O)CC(O)CC1O` (stereo not drawn) [11α-fluoromethyl-1α,25-(OH)2-D3], the “calcemic index (CI)” value in data set [1] was “about 0.1”.

As to `C=C1/C(=C\C=C2/CCC[C@]3(C)[C@@H]([C@H](C)OCCC(C)(C)O)CC[C@@H]23)C[C@@H](O)C[C@@H]1O` [22-Oxacalcitriol, 22-oxa-1α,25-(OH)2-D3], the “calcemic index (CI)” value in data set [1] was “CI < 0.001”. Moreover, the figures for the “Relative Competitive index for VDR (Calcitriol = 100)” value in data set [2] and in data set [3] were 100 (rat osteosarcoma) and 100 (MCF-7 cells), respectively.

With `C=C1/C(=C\C=C2/CCC[C@]3(C)[C@@H]([C@H](C)/C=C/C=C/C(O)(CC)CC)CC[C@@H]23)C[C@@H](O)C[C@@H]1O` [EB 1089, 24a,26a,27a-trihomo-22,24-diene-1α, 25-(OH)2-D3], the “Relative Competitive index for VDR (Calcitriol = 100)” value at VDR (chick intestine) is 17 (chick). On to `C=C1/C(=C\C=C2/CCC[C@]3(C)[C@@H]([C@@H](C)OCCCC(O)(CC)CC)CC[C@@H]23)C[C@@H](O)C[C@@H]1O` [KH 1060, 20-epi-22-oxa-24a,26a,27a-trihomo-1α,25-(OH)2-D3], for which the “calcemic index (CI)” value in data set [1] is reported as “CI = 1.3”. `C=C1/C(=C\C=C2/CCC[C@]3(C)[C@@H]([C@H](C)/C=C/[C@@H](O)C4CC4)CC[C@@H]23)C[C@@H](O)C[C@@H]1O` [MC 903, 1[…]24S-(OH)2-22-Ene-26,27-dehydro-D3]: the “Relative Competitive index for VDR (Calcitriol = 100)” value on VDR (chick intestine) is 111 (chick) and 76 (chick) and 100 (chick); at VDR (U-937 cells), 240 (U-937 cells). In data set [4] (patients who completed 6 weeks of treatment), the “patients with a 50% reduction in the bidirectional diameter of the treated lesions” value is on record as “Three of the 14”. The hypercalcemia result in data set [4] is listed as “hypercalcemia was a complication of the treatment”. For the same molecule, in data set [1], the “calcemic index (CI)” value is “CI < 0.01”. `C=C1/C(=C\C=C2/CCC[C@]3(C)[C@@H]([C@H](C)CCCC(C)(C)O)CC[C@@H]23)C[C@@H](O)C[C@@H]1O` [MC 1288, 1,25(OH2-20-epi-D3]: on VDR (chick intestine), the “Relative Competitive index for VDR (Calcitriol = 100)” value was 147 (chick) and 120 (chick).
